SMILES strings stand for the structures. Counter-ions that a name gives are not always drawn.

Our source for the IC50 values is patent US7855213B2 (AstraZeneca AB, priority 2006, dated 2010).

T1 sequence (P56817 22-460): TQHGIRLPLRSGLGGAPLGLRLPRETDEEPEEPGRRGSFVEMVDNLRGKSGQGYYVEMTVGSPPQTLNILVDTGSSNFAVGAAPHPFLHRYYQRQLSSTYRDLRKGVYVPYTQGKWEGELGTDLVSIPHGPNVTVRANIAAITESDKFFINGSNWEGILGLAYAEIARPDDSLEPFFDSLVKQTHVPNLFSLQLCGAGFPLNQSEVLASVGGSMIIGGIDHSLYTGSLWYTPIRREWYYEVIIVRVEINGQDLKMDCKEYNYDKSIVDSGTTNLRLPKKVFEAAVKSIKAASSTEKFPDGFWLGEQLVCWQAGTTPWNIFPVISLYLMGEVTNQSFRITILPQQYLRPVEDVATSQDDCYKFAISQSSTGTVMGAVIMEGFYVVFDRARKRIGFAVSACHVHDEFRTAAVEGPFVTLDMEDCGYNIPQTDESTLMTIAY

The experiment has as its target T1, human β-Secretase (Homo sapiens, UniProt P56817).
T1 construct: The soluble part of the human β-Secretase (AA 1-AA 460) was cloned; made in house
As to the kind of experiment: TR-FRET assay. In kind it is biochemical. (In TR-FRET formats the signal depends on donor and acceptor labels being close together.)
The IC50 is the concentration needed to halve the response being measured. `NC1=NC(c2cccc(-c3cccnc3F)c2)(c2ccc3c(c2)OCO3)c2ccccc21` (stereo not shown) [Example 31, 3-Benzo[1,3]dioxol-5-yl-3-[3-(2-fluoropyridin-3-yl)-phenyl]-3H-isoindol-1-ylamine trifluoroacetate] returned an IC50 of 768 nM.
The result for `CS(=O)(=O)Oc1ccc(C2(c3cccc(-c4cncnc4)c3)N=C(N)c3ccccc32)cc1` (stereo not shown) [Example 38, Methanesulfonic acid 4-[3-amino-1-(3-pyrimidin-5-yl-phenyl)-1H-isoindol-1-yl]-phenyl ester trifluoroacetate] reads 706 nM.
The same measure for `NC1=NC(c2cccc(OS(=O)(=O)C(F)(F)F)c2)(c2ccc(F)c(-c3cncnc3)c2)c2ccccc21` (stereo not shown) [Example 134, 3-[3-Amino-1-(4-fluoro-3-pyrimidin-5-ylphenyl)-1H-isoindol-1-yl]phenyl trifluoromethanesulfonate]: 347 nM.
As for `COc1ccc(C2(c3cccc(-c4cncc(OC)c4)c3)N=C(N)c3ccccc32)cc1` (stereo not shown) [Example 12, 3-(4-Methoxy-phenyl)-3-[3-(5-methoxy-pyridin-3-yl)-phenyl]-3H-isoindol-1-ylamine trifluoroacetate], half-maximal inhibition (IC50) required 68 nM.
Molecule `COc1ccc(C2(c3cccc(-c4cncnc4)c3)N=C(N)c3ccccc32)cc1C` (stereo not shown) [Example 23, 3-(4-Methoxy-3-methyl-phenyl)-3-(3-pyrimidin-5-yl-phenyl)-3H-isoindol-1-ylamine trifluoroacetate] gave an IC50 of 88 nM.
For `COc1ccc(F)c(-c2cccc(C3(c4ccncc4)N=C(N)c4ccccc43)c2)c1` (stereo not shown) [Example 103, 1-(2′-Fluoro-5′-methoxybiphenyl-3-yl)-1-pyridin-4-yl-1H-isoindol-3-amine], the IC50 came to 110 nM.
The result for `COc1ccc(C2(c3ccc(F)c(-c4cncnc4)c3)N=C(N)c3ccccc32)cc1C` (stereo not shown) [Example 127, 1-(4-Fluoro-3-pyrimidin-5-ylphenyl)-1-(4-methoxy-3-methylphenyl)-1H-isoindol-3-amine] reads 33 nM; that for `NC1=NC(c2ccncc2)(c2cccc(-c3cncnc3)c2)c2cc(F)ccc21` (stereo not shown) [Example 84, 6-Fluoro-1-pyridin-4-yl-1-(3-pyrimidin-5-ylphenyl)-1H-isoindol-3-amine], 94 nM.
The result for `NC1=NC(c2ccc(OS(=O)(=O)C(F)(F)F)cc2)(c2ccc(F)c(-c3cncnc3)c2)c2ccccc21` (stereo not shown) [Example 136, 4-[3-Amino-1-(4-fluoro-3-pyrimidin-5-ylphenyl)-1H-isoindol-1-yl]phenyl trifluoromethanesulfonate] reads 457 nM.
In turn, `COc1cncc(-c2cccc(C3(c4ccncc4)N=C(N)c4ccccc43)c2)c1` (stereo not shown) [Example 46, 3-[3-(5-Methoxy-pyridin-3-yl)-phenyl]-3-pyridin-4-yl-3H-isoindol-1-ylamine trifluoroacetate] had an IC50 of 98 nM.
The result for `CS(=O)(=O)Oc1ccc(C2(c3cccc(-c4cccnc4)c3)N=C(N)c3ccccc32)cc1` (stereo not shown) [Example 35, Methanesulfonic acid 4-[3-amino-1-(3-pyridin-3-yl-phenyl)-1H-isoindol-1-yl]-phenyl ester trifluoroacatete] reads 950 nM; that for `COc1cccc(-c2cccc(C3(c4ccc5c(c4)OCCO5)N=C(N)c4ccccc43)c2)c1` (stereo not shown) [Example 27, 3-(2,3-Dihydrobenzo[b][1,4]dioxin-6-yl)-3-(3′-methoxybiphenyl-3-yl)-3H-isoindol-1-amine trifluoroacetate], 1060 nM.
The same measure for `COc1ccc(F)c(-c2cccc(C3(c4ccncc4F)N=C(N)c4ccccc43)c2)c1` (stereo not shown) [Example 99, 1-(2′-Fluoro-5′-methoxybiphenyl-3-yl)-1-(3-fluoropyridin-4-yl)-1H-isoindol-3-amine]: 220 nM; for `COc1ccc(C2(c3cccc(-c4cccnc4)c3)N=C(N)c3ccc(F)cc32)cc1` (stereo not shown) [Example 79, 6-Fluoro-1-(4-methoxyphenyl)-1-(3-pyridin-3-ylphenyl)-1H-isoindol-3-amine]: 54 nM; for `COc1cccc(-c2cccc(C3(c4ccncc4)N=C(N)c4ccccc43)c2)c1F` (stereo not shown) [Example 104, 1-(2′-Fluoro-3′-methoxybiphenyl-3-yl)-1-pyridin-4-yl-1H-isoindol-3-amine]: 59 nM.
The result for `COc1cncc(-c2cccc(C3(c4ccc(OC)c(C)c4)N=C(N)c4ccccc43)c2)c1` (stereo not shown) [Example 21, 3-(4-Methoxy-3-methyl-phenyl)-3-[3-(5-methoxy-pyridin-3-yl)-phenyl]-3H-isoindol-1-ylamine trifluoroacetate] reads 42 nM; that for `COc1cc(OS(C)(=O)=O)cc(-c2cccc(C3(c4ccc5c(c4)OCO5)N=C(N)c4ccccc43)c2)c1` (stereo not shown) [Example 34, Methanesulfonic acid 3′-(3-amino-1-benzo[1,3]dioxol-5-yl-1H-isoindol-1-yl)-5-methoxy-biphenyl-3-yl ester trifluoroacetate], 1090 nM.
As to `COc1ccc(C2(c3cccc(-c4cccnc4F)c3)N=C(N)c3ccccc32)cc1C` (stereo not shown) [Example 24, 3-[3-(2-Fluoro-pyridin-3-yl)-phenyl]-3-(4-methoxy-3-methyl-phenyl)-3H-isoindol-1-ylamine trifluoroacetate], the IC50 is 54 nM.
In turn, `NC1=NC(c2cncc(F)c2)(c2cccc(-c3cccnc3F)c2)c2ccccc21` (stereo not shown) [Example 124, 1-(5-Fluoropyridin-3-yl)-1-[3-(2-fluoropyridin-3-yl)phenyl]-1H-isoindol-3-amine] displayed an IC50 of 560 nM.
Regarding `COc1cccc(-c2cccc(C3(c4ccc(OS(C)(=O)=O)cc4)N=C(N)c4ccccc43)c2)c1` (stereo not shown) [Example 40, Methanesulfonic acid 4-[3-amino-1-(3′-methoxy-biphenyl-3-yl)-1H-isoindol-1-yl]-phenyl ester trifluoroaceate], half-maximal inhibition (IC50) was put at 570 nM.
In turn, `COc1ccc(C2(c3cccc(-c4cccnc4)c3)N=C(N)c3ccccc32)cc1C` (stereo not shown) [Example 22, 3-(4-Methoxy-3-methyl-phenyl)-3-(3-pyridin-3-yl-phenyl)-3H-isoindol-1-ylamine trifluoroacetate] showed an IC50 of 145 nM.
The result for `NC1=NC(c2cccc(-c3cccnc3F)c2)(c2ccnc(F)c2)c2ccccc21` (stereo not shown) [Example 117, 1-(2-Fluoropyridin-4-yl)-1-[3-(2-fluoropyridin-3-yl)phenyl]-1H-isoindol-3-amine] reads 100 nM.
The same measure for `N#Cc1cncc(-c2cccc(C3(c4ccncc4F)N=C(N)c4ccccc43)c2)c1` (stereo not shown) [Example 102, 5-{3-[3-Amino-1-(3-fluoropyridin-4-yl)-1H-isoindol-1-yl]phenyl}nicotinonitrile]: 310 nM.
`COc1ccc(C2(c3cccc(Br)c3)N=C(N)c3ccccc32)cc1C` (stereo not shown) [Example 19, 3-(3-Bromo-phenyl)-3-(4-methoxy-3-methyl-phenyl)-3H-isoindol-1-ylamine trifluoroacetate] registered an IC50 of 1360 nM.
The same measure for `NC(=O)c1ccccc1-c1cccc(C2(c3ccncc3)N=C(N)c3ccccc32)c1` (stereo not shown) [Example 64, 3′-(3-Amino-1-pyridin-4-yl-1H-isoindol-1-yl)biphenyl-2-carboxamide 0.25 acetate]: more than 3100 nM.
The same measure for `NC1=NC(c2ccccc2)(c2ccccc2)c2ccccc21` [Example 1, 3,3-Diphenyl-3H-isoindol-1-ylamine]: 9140 nM.
The same measure for `NC1=NC(c2cccc(-c3cncnc3)c2)(c2ccc3c(c2)OCCO3)c2ccccc21` (stereo not shown) [Example 18, 3-(2,3-Dihydrobenzo[b][1,4]dioxin-6-yl)-3-(3-(pyrimidin-5-yl)phenyl)-3H-isoindol-1-amine trifluoroacetate]: 593 nM; for `COc1ccc(C2(c3cccc(-c4cccnc4)c3)N=C(N)c3ccccc32)cc1` (stereo not shown) [Example 9, 3-(4-Methoxy-phenyl)-3-(3-pyridin-3-yl-phenyl)-3H-isoindol-1-ylamine trifluoroacetate]: 154 nM; for `CC1(c2cccc(-c3cncnc3)c2)N=C(N)c2ccccc21` (stereo not shown) [Example 95, 1-Methyl-1-(3-pyrimidin-5-ylphenyl)-1H-isoindol-3-amine acetate]: 2010 nM.
Molecule `COc1cc(C2(c3cccc(-c4cccnc4F)c3)N=C(N)c3ccccc32)ccn1` (stereo not shown) [Example 119, 1-[3-(2-Fluoropyridin-3-yl)phenyl]-1-(2-methoxypyridin-4-yl)-1H-isoindol-3-amine] yielded an IC50 of 110 nM.
The same measure for `N#Cc1ccc(C2(c3cccc(-c4cccnc4F)c3)N=C(N)c3ccccc32)cc1` (stereo not shown) [Example 65, 4-{3-Amino-1-[3-(2-fluoropyridin-3-yl)phenyl]-1H-isoindol-1-yl}benzonitrile]: 400 nM; for `NC1=NC(c2ccc(C(F)(F)F)nc2)(c2cccc(-c3cncnc3)c2)c2ccccc21` (stereo not shown) [Example 130, 1-(3-Pyrimidin-5-ylphenyl)-1-[6-(trifluoromethyl)pyridin-3-yl]-1H-isoindol-3-amine 0.66 acetate]: 1300 nM.
The same measure for `N#Cc1cncc(-c2cccc(C3(c4ccncc4)N=C(N)c4ccccc43)c2)c1` (stereo not shown) [Example 77, 5-[3-(3-Amino-1-pyridin-4-yl-1H-isoindol-1-yl)phenyl]nicotinonitrile acetate]: 150 nM.
As for `COc1ncc(C2(c3cccc(-c4cccc(OC)c4F)c3)N=C(N)c3ccccc32)cn1` (stereo not shown) [Example 109, 1-(2′-Fluoro-3′-methoxybiphenyl-3-yl)-1-(2-methoxypyrimidin-5-yl)-1H-isoindol-3-amine], half-maximal inhibition (IC50) was put at 750 nM.
The same measure for `COc1cncc(-c2cccc(C3(c4ccc5c(c4)OCCO5)N=C(N)c4ccccc43)c2)c1` (stereo not shown) [Example 16, 3-(2,3-Dihydrobenzo[b][1,4]dioxin-6-yl)-3-(3-(5-methoxypyridin-3-yl)phenyl)-3H-isoindol-1-amine trifluoroacetate]: 425 nM; for `COc1cncc(-c2cccc(C3(c4ccc5c(c4)OCO5)N=C(N)c4ccccc43)c2)c1` (stereo not shown) [Example 32, 3-Benzo[1,3]dioxol-5-yl-3-[3-(5-methoxy-pyridin-3-yl)-phenyl]3H isoindol-1-ylamine trifluoroacetate]: 708 nM.
The same measure for `COc1ccc(C2(c3ccc(F)c(-c4cccnc4F)c3)N=C(N)c3ccccc32)cc1C` (stereo not shown) [Example 128, 1-[4-Fluoro-3-(2-fluoropyridin-3-yl)phenyl]-1-(4-methoxy-3-methylphenyl)-1H-isoindol-3-amine]: 40 nM.
